Common to all, as to experiment: relative viability (nuclei count vs DMSO), 5 days (fraction); higher = more cells survive
Compound in the test “VX-702 + Alpelisib”: NC(=O)c1ccc(N(C(N)=O)c2c(F)cccc2F)nc1-c1ccc(F)cc1F [VX-702] + Cc1nc(NC(=O)N2CCC[C@H]2C(N)=O)sc1-c1ccnc(C(C)(C)C(F)(F)F)c1 [Alpelisib] (partner 2 µM)
The essentials:
(§1)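 Cells from lung cancer lines were seeded into 1536-well plates and, one day later, dosed by pin tool. Treatments were either a single drug or a fixed dose of an anchor drug with five library-drug doses (not always all listed) in √10 steps. After 5 days, nuclei were stained in a one-step fixation (final 0.05% Triton X-100, 1% formaldehyde, 1 ug/ml Hoechst) and counted on 4× images, and relative viability is the treated-to-vehicle nuclei ratio, as the median of duplicate plates.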

Compound in the test “Dabrafenib + Vorinostat”: CC(C)(C)c1nc(-c2cccc(NS(=O)(=O)c3c(F)cccc3F)c2F)c(-c2ccnc(N)n2)s1 [Dabrafenib] + O=C(CCCCCCC(=O)Nc1ccccc1)NO [Vorinostat] (partner 1 µM)
The essentials:
as §1

Compound in the test “Dabrafenib + Decitabine”: CC(C)(C)c1nc(-c2cccc(NS(=O)(=O)c3c(F)cccc3F)c2F)c(-c2ccnc(N)n2)s1 [Dabrafenib] + Nc1ncn([C@H]2C[C@H](O)[C@@H](CO)O2)c(=O)n1 [Decitabine] (partner 2 µM)
The essentials: as §1

Compound in the test “VX-702 + Lapatinib”: NC(=O)c1ccc(N(C(N)=O)c2c(F)cccc2F)nc1-c1ccc(F)cc1F [VX-702] + CS(=O)(=O)CCNCc1ccc(-c2ccc3ncnc(Nc4ccc(OCc5cccc(F)c5)c(Cl)c4)c3c2)o1 [Lapatinib] (partner 2 µM)
The essentials: as §1

With HCC-15, the relative viability in the test with VX-702 + Alpelisib (first compound 0.02 µM) was found to be 0.844; in the test with VX-702 + Alpelisib (first compound 0.2 µM), 0.777; in the test with VX-702 + Alpelisib (first compound 0.6325 µM), 0.848; in the test with VX-702 + Alpelisib (first compound 2 µM), 0.956; with Dabrafenib + Vorinostat (first compound 0.003 µM) it was 0.862; with Dabrafenib + Vorinostat (first compound 0.009487 µM), 0.844. Also, the relative viability with Dabrafenib + Vorinostat (first compound 0.03 µM) turned out to be 0.825; with Dabrafenib + Vorinostat (first compound 0.09487 µM), 0.768; with Dabrafenib + Vorinostat (first compound 0.3 µM), 0.896; in the test with Dabrafenib + Decitabine (first compound 0.003 µM) it was 0.586; with Dabrafenib + Decitabine (first compound 0.009487 µM), 0.677; in the test with Dabrafenib + Decitabine (first compound 0.03 µM) it was 0.665. The relative viability was found to be 0.669 with Dabrafenib + Decitabine (first compound 0.09487 µM); 0.636 in the test with Dabrafenib + Decitabine (first compound 0.3 µM); 0.837 with VX-702 + Lapatinib (first compound 0.02 µM); 0.838 in the test with VX-702 + Lapatinib (first compound 0.2 µM); 0.857 with VX-702 + Lapatinib (first compound 0.6325 µM); 0.928 with VX-702 + Lapatinib (first compound 2 µM).

Take HOP-62: the relative viability in the test with VX-702 + Alpelisib (first compound 0.02 µM) was found to be 1.12; in the test with VX-702 + Alpelisib (first compound 0.2 µM), 1.17; with VX-702 + Alpelisib (first compound 0.6325 µM) it was 1.06; with VX-702 + Alpelisib (first compound 2 µM) it was 1.19; with Dabrafenib + Vorinostat (first compound 0.003 µM), 0.199; in the test with Dabrafenib + Vorinostat (first compound 0.009487 µM), 0.806. Also, the relative viability with Dabrafenib + Vorinostat (first compound 0.03 µM) came out at 0.555; with Dabrafenib + Vorinostat (first compound 0.09487 µM), 0.341; with Dabrafenib + Vorinostat (first compound 0.3 µM), 0.5; with Dabrafenib + Decitabine (first compound 0.003 µM), 0.216; in the test with Dabrafenib + Decitabine (first compound 0.009487 µM), 0.183; with Dabrafenib + Decitabine (first compound 0.03 µM), 0.221. Besides, the relative viability in the test with Dabrafenib + Decitabine (first compound 0.09487 µM) is 0.188; in the test with Dabrafenib + Decitabine (first compound 0.3 µM), 0.217; in the test with VX-702 + Lapatinib (first compound 0.02 µM) it was 1.04; with VX-702 + Lapatinib (first compound 0.2 µM), 0.894; with VX-702 + Lapatinib (first compound 0.6325 µM), 1.08; in the test with VX-702 + Lapatinib (first compound 2 µM) it was 0.975.

Turning to EMC-BAC-2, the relative viability in the test with VX-702 + Alpelisib (first compound 0.02 µM) came out at 0.766; in the test with VX-702 + Alpelisib (first compound 0.2 µM), 0.671; in the test with VX-702 + Alpelisib (first compound 0.6325 µM), 0.723; with VX-702 + Alpelisib (first compound 2 µM) it was 0.852; in the test with Dabrafenib + Vorinostat (first compound 0.009487 µM) it was 0.459; in the test with Dabrafenib + Vorinostat (first compound 0.03 µM) it was 0.324. The relative viability with Dabrafenib + Vorinostat (first compound 0.09487 µM) amounted to 0.281; in the test with Dabrafenib + Vorinostat (first compound 0.3 µM), 0.328; with Dabrafenib + Decitabine (first compound 0.009487 µM) it was 0.959; with Dabrafenib + Decitabine (first compound 0.03 µM), 0.974; with Dabrafenib + Decitabine (first compound 0.09487 µM) it was 0.933; with Dabrafenib + Decitabine (first compound 0.3 µM), 0.905. For the same cell line, the relative viability with VX-702 + Lapatinib (first compound 0.02 µM) was 0.924; with VX-702 + Lapatinib (first compound 0.2 µM) it was 0.947; with VX-702 + Lapatinib (first compound 0.6325 µM) it was 0.906; in the test with VX-702 + Lapatinib (first compound 2 µM) it was 0.883.

For the cell line NCI-H1355, the relative viability was 0.778 in the test with VX-702 + Alpelisib (first compound 0.02 µM); 0.807 in the test with VX-702 + Alpelisib (first compound 0.2 µM); 0.799 with VX-702 + Alpelisib (first compound 0.6325 µM); 0.876 in the test with VX-702 + Alpelisib (first compound 2 µM); 0.672 with Dabrafenib + Vorinostat (first compound 0.009487 µM); 0.641 in the test with Dabrafenib + Vorinostat (first compound 0.03 µM). In addition, the relative viability with Dabrafenib + Vorinostat (first compound 0.09487 µM) was found to be 0.581; with Dabrafenib + Vorinostat (first compound 0.3 µM) it was 0.633; with Dabrafenib + Decitabine (first compound 0.009487 µM), 0.331; with Dabrafenib + Decitabine (first compound 0.03 µM), 0.381; with Dabrafenib + Decitabine (first compound 0.09487 µM) it was 0.37; in the test with Dabrafenib + Decitabine (first compound 0.3 µM) it was 0.317. Moreover, the relative viability with VX-702 + Lapatinib (first compound 0.02 µM) was found to be 1.09; in the test with VX-702 + Lapatinib (first compound 0.2 µM), 0.984; with VX-702 + Lapatinib (first compound 0.6325 µM), 0.998; in the test with VX-702 + Lapatinib (first compound 2 µM) it was 1.28.

As for NCI-H3122, the relative viability turned out to be 0.822 with VX-702 + Alpelisib (first compound 0.02 µM); 0.735 with VX-702 + Alpelisib (first compound 0.2 µM); 0.676 in the test with VX-702 + Alpelisib (first compound 0.6325 µM); 0.859 with VX-702 + Alpelisib (first compound 2 µM); 0.978 with Dabrafenib + Vorinostat (first compound 0.003 µM); 0.966 with Dabrafenib + Vorinostat (first compound 0.009487 µM). Further, the relative viability with Dabrafenib + Vorinostat (first compound 0.03 µM) was determined as 0.916; in the test with Dabrafenib + Vorinostat (first compound 0.09487 µM) it was 0.991; in the test with Dabrafenib + Vorinostat (first compound 0.3 µM), 1.02; with Dabrafenib + Decitabine (first compound 0.003 µM), 0.567; with Dabrafenib + Decitabine (first compound 0.009487 µM), 0.404; in the test with Dabrafenib + Decitabine (first compound 0.03 µM) it was 0.397. Further, the relative viability in the test with Dabrafenib + Decitabine (first compound 0.09487 µM) worked out at 0.429; in the test with Dabrafenib + Decitabine (first compound 0.3 µM) it was 0.373; in the test with VX-702 + Lapatinib (first compound 0.02 µM) it was 1.07; with VX-702 + Lapatinib (first compound 0.2 µM), 0.977; in the test with VX-702 + Lapatinib (first compound 0.6325 µM), 1.04; in the test with VX-702 + Lapatinib (first compound 2 µM), 1.03.

These data come from the supplement of paper PMC10307832.
